Active and inactive are the calls of the source. The calls are words filed in the database; no cut-off is given here.
Columns and labels:
[1] = system: A549; experiment: cells; conditions: Homo sapiens, A549, 48 h
Description: Cytotoxicity in human A549 cells assessed as reduction in cell viability incubated for 48 hrs by MTT assay

[2] = system: QGY-7703; experiment: Cytotoxicity in human QGY7703 cells assessed as reduction in cell viability incubated for 48 hrs by MTT assay; assay type: functional, cell-based; conditions: QGY-7703, 48 h
[3] = system: SMMC-7721; experiment: Cytotoxicity in human SMMC7721 cells assessed as reduction in cell viability incubated for 48 hrs by MTT assay; assay type: functional, cell-based; conditions: SMMC-7721, 48 h
[4] = system: MCF7; experiment: cells; conditions: Homo sapiens, MCF7, 48 h
Description: Cytotoxicity in human MCF7 cells assessed as reduction in cell viability incubated for 48 hrs by MTT assay

[5] = system: KB; experiment: Cytotoxicity in human KB cells assessed as reduction in cell viability incubated for 48 hrs by MTT assay; assay type: functional, cell-based
[6] = system: MDA-MB-231; experiment: Cytotoxicity in human MDA-MB-231 cells assessed as reduction in cell viability incubated for 48 hrs by MTT assay; assay type: functional, cell-based; conditions: MDA-MB-231, 48 h
[7] = system: MGC-803; experiment: Cytotoxicity in human MGC803 cells assessed as reduction in cell viability incubated for 48 hrs by MTT assay; assay type: functional, cell-based; conditions: MGC-803, 48 h
[8] = system: SK-N-SH; experiment: Cytotoxicity in human SK-N-SH cells assessed as reduction in cell viability incubated for 48 hrs by MTT assay; assay type: functional, cell-based
[9] = system: HepG2; experiment: Cytotoxicity in human HepG2 cells assessed as reduction in cell viability incubated for 48 hrs by MTT assay; assay type: functional, cell-based; conditions: HepG2, 48 h
[10] = system: Bel-7402; experiment: Cytotoxicity in human Bel7402 cells assessed as reduction in cell viability incubated for 48 hrs by MTT assay; assay type: functional, cell-based; conditions: Bel-7402, 48 h
[11] = system: SGC-7901; experiment: Cytotoxicity in human SGC7901 cells assessed as reduction in cell viability incubated for 48 hrs by MTT assay; assay type: functional, cell-based; conditions: SGC-7901, 48 h
[12] = biological target: T1, DNA topoisomerase 1 (Homo sapiens) (UniProt P11387); experiment: Inhibition of human recombinant topoisomerase-1 activity at 100 uM using supercoiled pHOT-1 DNA incubated for 30 mins by ethidium bromide free agarose gel elctrophoresis method
T1 sequence (whole entry): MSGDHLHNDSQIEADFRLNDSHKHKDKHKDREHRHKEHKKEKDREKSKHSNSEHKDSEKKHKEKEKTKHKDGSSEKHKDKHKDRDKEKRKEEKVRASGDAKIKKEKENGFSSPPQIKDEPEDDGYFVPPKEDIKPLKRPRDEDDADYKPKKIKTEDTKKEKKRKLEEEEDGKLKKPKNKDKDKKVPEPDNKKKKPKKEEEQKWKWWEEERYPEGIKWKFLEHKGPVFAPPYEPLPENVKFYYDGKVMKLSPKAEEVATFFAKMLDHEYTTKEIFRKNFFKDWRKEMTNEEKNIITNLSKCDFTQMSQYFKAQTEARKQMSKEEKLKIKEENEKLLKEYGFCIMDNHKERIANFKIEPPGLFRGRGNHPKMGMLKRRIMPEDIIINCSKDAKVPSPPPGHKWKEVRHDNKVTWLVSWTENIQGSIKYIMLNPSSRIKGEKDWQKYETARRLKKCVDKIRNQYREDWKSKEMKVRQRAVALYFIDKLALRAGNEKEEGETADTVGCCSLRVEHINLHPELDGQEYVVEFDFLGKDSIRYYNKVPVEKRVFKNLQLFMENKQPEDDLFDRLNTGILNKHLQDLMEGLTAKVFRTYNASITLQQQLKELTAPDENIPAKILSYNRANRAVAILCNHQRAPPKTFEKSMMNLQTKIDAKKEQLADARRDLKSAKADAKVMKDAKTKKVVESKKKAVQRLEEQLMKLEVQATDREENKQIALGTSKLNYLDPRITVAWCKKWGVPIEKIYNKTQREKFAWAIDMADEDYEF

[13] = system: Mus musculus; experiment: Reduction in IL6 level in C57BL/6 mouse model of LPS-induced sepsis at 8 mg/kg, po dosed 0.5 hrs before LPS injection followed by 8 mg/kg, po dosing at 1 hr, 4 hrs, and 8 hrs after LPS treatment; assay type: functional, organism-based
[14] = biological target: T1, DNA topoisomerase 1 (Homo sapiens); experiment: Inhibition of human recombinant topoisomerase-1 activity at 50 uM using supercoiled pHOT-1 DNA incubated for 30 mins by ethidium bromide free agarose gel elctrophoresis method
[15] = biological target: T1, DNA topoisomerase 1 (Homo sapiens); experiment: Inhibition of human recombinant topoisomerase-1-mediated DNA cleavage in at 50 uM using supercoiled pHOT-1 DNA incubated for 30 mins by ethidium bromide staining based agarose gel elctrophoresis method
[16] = system: Mus musculus; experiment: Reduction in IL6 level in C57BL/6 mouse model of LPS-induced sepsis at 2 mg/kg, iv dosed 0.5 hrs before LPS injection followed by 2 mg/kg, iv dosing at 1 hr, 4 hrs, and 8 hrs after LPS treatment; assay type: functional, organism-based
[17] = system: HepG2; experiment: Antitumor activity against human HepG2 cells xenografted in Balb/C mouse assessed as inhibition of tumor growth at dosed intravenously once per week for 30 days followed by 2 weeks observation; assay type: functional, organism-based
[18] = system: Mus musculus; experiment: Reduction in IL6 level in C57BL/6 mouse model of LPS-induced sepsis at 4 mg/kg, po dosed 0.5 hrs before LPS injection followed by 4 mg/kg, po dosing at 1 hr, 4 hrs, and 8 hrs after LPS treatment; assay type: functional, organism-based
[19] = system: Mus musculus; experiment: Reduction in IL6 level in C57BL/6 mouse model of LPS-induced sepsis at 4 mg/kg, iv dosed 0.5 hrs before LPS injection followed by 4 mg/kg, iv dosing at 1 hr, 4 hrs, and 8 hrs after LPS treatment; assay type: functional, organism-based
[20] = system: MGC-803; experiment: Potency index, ratio of IC50 for topotecan to IC50 for test compound for cytotoxicity in human MGC803 cells assessed as reduction in cell viability incubated for 48 hrs by MTT assay; assay type: functional
[21] = system: HepG2; experiment: Potency index, ratio of IC50 for topotecan to IC50 for test compound for cytotoxicity in human HepG2 cells assessed as reduction in cell viability incubated for 48 hrs by MTT assay; assay type: functional
[22] = Drug metabolism in plasma of C57BL/6 mouse assessed as (S)-8-Ethyl-8-hydroxy-2-isopropyl-8H-oxazolo[4,5-f ]-pyrano[3',4':6,7]indolizino[1,2-b]quinoline-9,12(11H,14H)-dione formation at 2 mg/kg, iv measured up to 1 hr by LC-MS/MS analysis; assay type: ADME, organism-based; conditions: in vivo
[23] = system: HepG2; experiment: Antitumor activity against human HepG2 cells xenografted in Balb/C mouse assessed as inhibition of tumor growth at 15 mg/kg, iv dosed once per week for 30 days followed by 2 weeks observation relative untreated control; assay type: functional; conditions: read-out: TGI
[24] = system: Mus musculus; experiment: Toxicity in human HepG2 cells xenografted Balb/C mouse assessed as reduction in body weight at 30 mg/kg, iv dosed once per week for 30 days followed by 2 weeks observation; assay type: organism-based; conditions: in vivo, 336 h
[25] = Drug metabolism in plasma of C57BL/6 mouse assessed as (9S)-9-Ethyl-9-hydroxy-3-isopropyl-2,3-dihydro[1,3]-oxazino[5,6-f ]pyrano[3',4':6,7]indolizino[1,2-b]quinoline-1,10,13(9H,12H,15H)-trione formation at 2 mg/kg, iv measured up to 1 hr by LC-MS/MS analysis; assay type: ADME, organism-based; conditions: in vivo
[26] = system: Mus musculus; experiment: Protection against LPS-induced lethal inflammation in C57BL/6 mouse model of sepsis assessed as survival at 10 mg/kg, po dosed 0.5 hrs before LPS injection followed by 10 mg/kg, po dosing at 1 hr, 4 hrs, and 8 hrs after LPS treatment; assay type: functional
[27] = system: Mus musculus; experiment: Toxicity in human HepG2 cells xenografted Balb/C mouse assessed as reduction in body weight at 15 mg/kg, iv dosed once per week for 30 days followed by 2 weeks observation; assay type: organism-based; conditions: in vivo, 336 h
[28] = Drug level in plasma of C57BL/6 mouse at 2 mg/kg, iv measured up to 1 hr by LC-MS/MS analysis; assay type: ADME, organism-based; conditions: in vivo

Row | SMILES | IC50 [1] | IC50 [2] | IC50 [3] | IC50 [4] | IC50 [5] | IC50 [6] | IC50 [7] | IC50 [8] | IC50 [9] | IC50 [10] | IC50 [11] | other results
1 | CC[C@@]1(O)C(=O)OCc2c1cc1n(c2=O)Cc2cc3c(ccc4oncc43)nc2-1 | 1030 nM | > 10000 nM | > 10000 nM | 1160 nM | 3340 nM | 488 nM | 514 nM | 463 nM | 64 nM | 10500 nM | > 10000 nM | 
2 | CC[C@@]1(OC(=O)CNC(=O)CCC(=O)O)C(=O)OCc2c1cc1n(c2=O)Cc2cc3c4c(ccc3nc2-1)OC(C(C)C)NC4=O (stereo not given in full) |  |  |  |  |  |  |  |  |  |  |  | inhibition [12]: inactive; Activity [13]: Active; inhibition [14]: inactive; inhibition [15]: inactive; Activity [16]: Active; TGI [17]: Dose-dependent effect; Activity [18]: Active; Activity [19]: Active
3 | CC[C@@]1(OC(=O)CNC(=O)CCC(=O)O)C(=O)OCc2c1cc1n(c2=O)Cc2cc3c(ccc4oncc43)nc2-1 | 1830 nM | > 10000 nM | > 10000 nM | > 10000 nM | 7140 nM | 641 nM | 275 nM | 549 nM | 348 nM | 2020 nM | > 10000 nM | 
4 | CCCCc1nc2c(ccc3nc4c(cc32)Cn2c-4cc3c(c2=O)COC(=O)[C@]3(O)CC)o1 | 1120 nM | > 10000 nM | > 10000 nM | 2140 nM | 2250 nM | 562 nM | 85 nM |  | 63 nM | 2020 nM | > 10000 nM | 
5 | CC[C@@]1(O)C(=O)OCc2c1cc1n(c2=O)Cc2cc3c(ccc4oc(C(C)C)nc43)nc2-1 | 1390 nM | 11600 nM | 10400 nM | 4640 nM | 2200 nM | 1440 nM | 18 nM |  | 16 nM | 3480 nM | > 10000 nM | Ratio IC50 [20]: 10; Ratio IC50 [21]: 10
6 | CC[C@@]1(OC(=O)CNC(=O)CCC(=O)O)C(=O)OCc2c1cc1n(c2=O)Cc2cc3c(ccc4oc(C(C)C)nc43)nc2-1 | 170 nM | > 10000 nM | 8500 nM | > 10000 nM | 935 nM | 425 nM | 62 nM | 510 nM | 60 nM | 425 nM | > 10000 nM | Drug metabolism [22]: Metabolite_Notdetected; inhibition in vivo at 15 mg/kg [23]: 86%; Activity [24]: Non-Toxic; Drug metabolism [25]: Metabolite_Notdetected; Activity [26]: 80%; Activity [27]: Non-Toxic; Drug uptake [28]: Not Active
